US20250194594A1, “ATTRACTANT COTTON SEED BUG, OXYCARENUS Hyalinipennis, AND USES THEREOF” (The United States of America, as represented by the …, priority 2023, published 2025)
Entries after “also recorded” stand apart in the source; their conditions may differ.

Key:
[1] = system: cotton seed bugs (CSBs); test: Pheromone function assigned from the behavioral responses and VOC profiles; format: in vivo, Oxycarenus hyalinipennis; conditions: summary statement; compounds not tested singly in the bioassays
[2] = system: cotton seed bug (CSB), Oxycarenus hyalinipennis; test: Field test, attractants formulated in rubber septa in a cotton field with low CSB population; format: in vivo; conditions: cotton field where CSB population was low, vs control (no treatment), listed as 4-oxo-E2-8: ald
Text: (§1) The mean number of O. hyalinippenis in different treatment traps (captures/week) in field trials were compared by one-way analysis of variance (ANOVA) followed by Ryan-Einot-Gabriel-Welsch F test (SPSS 10.0 for Windows) following D George and P Mallery (2002, “SPSS for Windows Step by Step: A Simple Guide and Reference,” 11.0 Update. 4th Edition, Allyn & Bacon; Boston, Massachusetts, USA). All statistical comparisons were considered for significance at α=0.05.
(§2) Different pheromones or mixtures of pheromones were tested for their ability to attract CSB in the field.
In a separate field test, a mixture of E2-octenal, 4-oxo-E2-octenal, and E2-octenyl acetate in a ratio of 1:2:7, as well as the single attractant component, 4-oxo-E2-8: ald, were tested. The compounds were formulated in rubber septa in a cotton field where the population of CSB was low. CSB formed the majority of insects caught in the traps. Trap specificity was much higher than in the test described above.

[3] = system: cotton seed bug (CSB), Oxycarenus hyalinipennis; test: Field test, pheromones in plastic vials in a cotton field with high CSB population; format: in vivo; conditions: counted after 1 hour, compared among treatment groups including control (no treatment)
Text: as §1, §2
Field tests were conducted by adding one or more of the identified pheromones to plastic vials and placing the vials in a cotton field with high CSB population, followed by counting the CSB caught after one (1) hour.
A field test was conducted using E2-octenal, E2-octenyl acetate, and a mixture of E2-octenal and E2-octenyl acetate. The compounds were placed in plastic vials in a cotton field with a high population of CSB. Many other bugs were also captured in the traps (numbers were not included).

[4] = cited from earlier work
[5] = cited from earlier work; remark: listed apart in the source

SMILES: CCCCCCC/C=C/C=O (single isomer, unassigned) [(E)-2-Decenal]
- pheromone function [1]: performed as oviposition pheromones

SMILES: CCC(=O)/C=C/C=O [4-Oxo-(E)-2-hexenal]
- pheromone function [1]: performed as CSB attraction pheromones

SMILES: CCCCC(=O)/C=C/C=O [4-Oxo-(E)-2-octenal]
- CSB trapped compared with control [2]: trapped significantly more CSB than control; also recorded: attract CSB

SMILES: CCC/C=C/C=O [(E)-2-Hexenal]
- pheromone function [1]: performed as CSB attraction pheromones

SMILES: CCC/C=C/COC(C)=O [(E)-2-Hexenyl acetate, (E)-2-hexen-1-yl acetate]
- pheromone function [1]: performed as CSB attraction pheromones

SMILES: CCCCC/C=C/C=O [(E)-2-Octenal]
- number of CSB caught in the traps [3]: not significantly different
- pheromone function [1]: performed as CSB attraction pheromones; also recorded: performed as oviposition pheromones
- solubility (in water) [4]: practically insoluble
- basicity (based on its pKa) [5]: extremely weak basic (essentially neutral)

SMILES: CCCCC/C=C/COC(C)=O [(E)-2-Octenyl acetate]
- number of CSB caught in the traps [3]: not significantly different
- pheromone function [1]: performed as CSB attraction pheromones; also recorded: performed as oviposition pheromones

SMILES: CC(C)=CCC[C@]1(C)[C@H]2CC=C(C)[C@@H]1C2 [(E)-α-Bergamotene]
- pheromone function [1]: performed as alarm (repellent) pheromones

SMILES: C=C/C(C)=C/C/C=C(/C)CCC=C(C)C [(Z, E)-α-Farnesene]
- pheromone function [1]: performed as alarm (repellent) pheromones

SMILES: CC1=CCC2CC1C2(C)C (stereo not drawn) [α-Pinene, 2,6,6-Trimethylbicyclo[3.1.1]hept-2-ene]
- pheromone function [1]: performed as CSB attraction pheromones
